Laboratory results: PMC8159961, “Exploring protein hotspots by optimized fragment pharmacophores” (Nature Communications, 2021)
Where “and” joins values, the source holds several entries; their conditions need not be identical. Equal entries are not always repeated. Where two headings read alike, the source gives them in different places.

How the values were obtained:
human thrombin = target: T1, human thrombin (Homo sapiens, UniProt P00734); experiment: Protease inhibitory assay, chromogenic substrate S-2238; assay type: biochemical; conditions: for vinit: replicate values; for Ki: Thrombin, one of two values averaged in Supplementary Data 1, read-out: Ki
T1 construct: human thrombin; purchased Sigma-Aldrich

bovine factor Xa = target: T2, bovine factor Xa (Bos taurus, UniProt P00743); experiment: Protease inhibitory assay, chromogenic substrate S-2222; assay type: biochemical; conditions: cmpd conc 200 µM; for vinit: replicate values; for Ki: FactorXa, one of two values averaged in Supplementary Data 1, read-out: Ki
T2 construct: bovine factor Xa, Chromogenix, 2 nkat/mL; purchased Chromogenix
T2 sequence (P00743 234-492 limits assumed): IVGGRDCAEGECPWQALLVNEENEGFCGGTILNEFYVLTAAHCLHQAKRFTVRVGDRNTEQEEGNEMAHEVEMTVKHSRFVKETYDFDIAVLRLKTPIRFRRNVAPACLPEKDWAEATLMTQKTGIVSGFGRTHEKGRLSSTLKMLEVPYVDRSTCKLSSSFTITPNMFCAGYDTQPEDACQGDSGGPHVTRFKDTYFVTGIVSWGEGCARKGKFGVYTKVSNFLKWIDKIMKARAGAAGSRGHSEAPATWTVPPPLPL
T2 sequence (P00743 41-180 partner limits assumed): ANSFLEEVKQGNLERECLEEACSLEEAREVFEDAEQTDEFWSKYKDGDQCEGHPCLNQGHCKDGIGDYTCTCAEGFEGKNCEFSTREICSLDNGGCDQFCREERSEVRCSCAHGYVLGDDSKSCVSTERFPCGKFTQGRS

[1] = Thrombin primary screening, substrate 40 µM, cmpd conc 500 µM
[2] = FactorXa primary screening, substrate 100 µM
[3] = FactorXa Ki determination, substrate 100 µM
[4] = FactorXa Ki determination, substrate 200 µM
[5] = Thrombin Ki determination, substrate 20 µM, cmpd conc 200 µM
[6] = Thrombin Ki determination, substrate 40 µM, cmpd conc 200 µM
[7] = substrate 20 µM, cmpd conc 200 µM
[8] = substrate 40 µM, cmpd conc 200 µM

Row | Structure (SMILES) | V0 / Vi (human thrombin; [1]) | vinit (human thrombin; [1]) | V0 / Vi (bovine factor Xa; [2]) | vinit (bovine factor Xa; [2]) | also measured
1 | c1cnc2ncccc2c1 [SX-A3] | 1.00 | 28.545 and 30.364 | 0.96 | 18.873 and 17.673 | 
2 | c1ccc2[nH]ccc2c1 [SX-A4] | 0.97 | 31.418 and 30.036 | 1.05 | 15.929 and 16.714 | 
3 | Nc1nnc2ccccn12 [SX-A5] | 0.99 | 30.873 and 29.418 | 0.96 | 17.929 | 
4 | Cn1c(N)nc2ccccc21 [SX-A6] | 0.93 | 31.891 and 32.182 | 1.45 | 10.544 and 13.214 | V0 / Vi (bovine factor Xa; [3]): 1.48; vinit, avrg. (bovine factor Xa; [3]): 10.970; vinit (bovine factor Xa; [3]): 10.624 and 11.848 and 10.44; V0 / Vi (bovine factor Xa; [4]): 1.30; vinit (bovine factor Xa; [4]): 28.578 and 28.05 and 27.32; Ki (bovine factor Xa; substrate 100 µM): 257 µM; Ki (bovine factor Xa; substrate 200 µM): 297 µM
5 | Cc1nc(-c2ccccc2)cs1 [SX-A7] | 0.97 | 32.618 and 31.345 | 0.98 | 17.782 and 18.8 | 
6 | Cc1cc(-c2ccccc2)n[nH]1 [SX-A8] | 0.97 | 32.036 and 32.145 | 0.98 | 19.236 and 17.164 | 
7 | Brc1ccc(-c2ccon2)cc1 [SX-A9] | 0.98 | 30.873 and 32.327 | 0.98 | 19.055 and 17.6 | 
8 | COc1ccccc1N1CCNCC1 [SX-A10] | 0.96 | 33.236 and 32.218 | 0.98 | 14.286 and 15.286 | 
9 | COc1ccccc1C1CCNCC1 [SX-A11] | 0.93 | 35.636 and 31.927 | 0.86 | 16.916 and 16.512 | 
10 | Oc1ccccc1N1CCCCC1 [SX-A12] | 0.93 | 34.073 and 33.6 | 1.24 | 11.714 and 11.643 | V0 / Vi (bovine factor Xa; [3]): 1.21; vinit, avrg. (bovine factor Xa; [3]): 13.477; vinit (bovine factor Xa; [3]): 13.208 and 13.684 and 13.54; V0 / Vi (bovine factor Xa; [4]): 1.14; vinit (bovine factor Xa; [4]): 30.42 and 30.848 and 34.37; Ki (bovine factor Xa; substrate 100 µM): 597 µM; Ki (bovine factor Xa; substrate 200 µM): 625 µM
11 | CS(=O)(=O)c1ccc(N2CCNCC2)cc1 [SX-B1] |  | 29.818 and 32 |  | 18 and 19.091 | 
12 | O=C1CNCCN1c1ccccc1 [SX-B2] | 1.05 | 28.909 and 27.2 | 1.00 | 17.273 and 17.782 | 
13 | O=C1CCCc2occc21 [SX-B3] | 0.97 | 30.582 and 29.818 | 1.01 | 17.709 and 16.909 | 
14 | NC1CCc2ccccc21 (centres unmarked) [SX-B4] | 0.96 | 31.2 and 30.982 | 0.93 | 18.714 and 18.143 | 
15 | N[C@H]1c2ccccc2C[C@H]1CO [SX-B5] | 0.98 | 32.873 and 28.182 | 0.91 | 18.071 and 19.643 | 
16 | O=c1[nH]ncc2c1oc1ccccc12 [SX-B6] | 1.05 | 28.582 and 28.145 | 1.00 | 17.214 and 17.071 | 
17 | O=C1NC(=O)C2(CCc3ccccc32)N1 (centres unmarked) [SX-B7] | 0.98 | 31.782 and 31.345 | 0.98 | 19.273 and 17.122 | 
18 | CS(=O)(=O)c1ccc(OC(F)(F)F)cc1 [SX-B8] | 0.99 | 31.709 and 31.2 | 0.94 | 20.109 and 18.073 | 
19 | Cc1cnc(C(F)(F)F)cn1 [SX-B9] | 1.01 | 31.164 and 30.509 | 0.98 | 18.8 and 17.6 | 
20 | CN1CC(=O)NC1=O [SX-B10] | 0.98 | 32.909 and 30.982 | 0.98 | 14 and 15.6 | 
21 | Cc1cc(N)no1 [SX-B11] | 1.00 | 30.982 and 31.927 | 0.97 | 13.08 and 16.72 | 
22 | COc1ccccc1CC1CCNCC1.Cl [SX-B12] | 0.97 | 32.327 and 32.218 | 1.35 | 10.3 and 11.164 | V0 / Vi (bovine factor Xa; [3]): 1.28; vinit, avrg. (bovine factor Xa; [3]): 12.727; vinit (bovine factor Xa; [3]): 13.1265 and 12.596 and 12.46; V0 / Vi (bovine factor Xa; [4]): 1.25; vinit (bovine factor Xa; [4]): 26.514 and 31.33 and 29.51; Ki (bovine factor Xa; substrate 100 µM): 445 µM; Ki (bovine factor Xa; substrate 200 µM): 357 µM

Row | Structure (SMILES) | V0 / Vi (human thrombin; [1]) | vinit (human thrombin; [1]) | V0 / Vi (bovine factor Xa; [2]) | vinit (bovine factor Xa; [2]) | also measured
23 | Fc1ccc(CC2CCCNC2)cc1 (centres unmarked) [SX-C1] | 0.97 | 29.564 and 30.8 | 0.94 | 18.218 and 18.909 | 
24 | c1ccc(-c2ccncc2)cc1 [SX-C2] | 0.98 | 30.473 and 29.273 | 1.01 | 16.764 and 18 | 
25 | NC(c1ccccc1)c1ccccc1 [SX-C3] | 1.07 | 27.818 and 27.309 | 0.95 | 19.527 and 17.564 | 
26 | c1ccc2c(N3CCNCC3)ccnc2c1 [SX-C4] | 1.01 | 30.291 and 29.018 | 1.03 | 16.357 and 17 | 
27 | O=c1ccc2c([nH]1)CCCC2 [SX-C5] | 1.00 | 30.182 and 29.673 | 1.05 | 16.714 and 16 | 
28 | CC1(C)OC(=O)c2cc(Br)c(O)cc2O1 [SX-C6] | 1.14 | 27.418 and 25.091 | 1.03 | 16.857 and 16.429 | 
29 | CC(=O)c1ccc2c(c1)CCCN2 [SX-C7] | 0.96 | 32.218 and 32.109 | 1.02 | 17.382 and 17.673 | 
30 | CC(=O)c1ccc2c(c1)CNCC2 [SX-C8] | 0.98 | 32.218 and 31.018 | 0.98 | 18.691 and 17.818 | 
31 | O=C1NC2(CCCC2)Nc2ccccc21 [SX-C9] | 1.01 | 30.218 and 31.018 | 0.98 | 18.873 and 17.6 | 
32 | O=c1[nH]c2c(s1)CCC2 [SX-C10] | 0.94 | 33.418 and 33.127 | 1.04 | 13.7 and 14.2 | 
33 | C1=C[C@H]2O[C@@H]1c1ccccc12 [SX-C11] | 0.96 | 33.564 and 31.964 | 0.94 | 15.415 and 15.185 | 
34 | N#Cc1ccc2ncsc2c1 [SX-C12] | 0.98 | 31.855 and 32.109 | 1.17 | 10.6 and 14 | 
35 | Nc1ccc(SC(F)F)cc1 [SX-D1] | 1.00 | 28.182 and 30.8 | 0.99 | 18.218 and 17.091 | 
36 | CCc1ccc(NC2=NCCCS2)cc1 [SX-D2] | 0.96 | 30.909 and 30.582 | 1.02 | 16.873 and 17.6 | 
37 | Nc1nnc(-c2cccs2)[nH]1 [SX-D3] | 1.08 | 26.655 and 27.673 | 1.09 | 16.545 and 15.782 | V0 / Vi (human thrombin; [5]): 1.11; vinit, avrg. (human thrombin; [5]): 23.831; vinit (human thrombin; [5]): 23.075 and 23.01 and 25.41; V0 / Vi (human thrombin; [6]): 1.08; vinit, avrg. (human thrombin; [6]): 31.345; vinit (human thrombin; [6]): 30.327 and 31.656 and 32.05; Ki (human thrombin; [7]): 204 µM; Ki (human thrombin; [8]): 158 µM
38 | CCn1cnc2ccccc21 [SX-D4] | 0.98 | 30.291 | 1.03 | 16.929 and 16.571 | 
39 | CCCN1C(=O)CC(=O)NC1=S [SX-D5] | 1.13 | 26.909 and 25.673 | 1.06 | 16.429 and 16.071 | 
40 | Cc1ccc(C)n1Cc1ccccc1Cl [SX-D6] | 1.24 | 26.364 and 21.673 | 0.98 | 17.786 and 17.286 | 
41 | Cc1ccc(-c2ccc(O)cc2)cc1 [SX-D7] | 1.05 | 30.8 and 28.545 | 1.15 | 14.909 and 16.073 | 
42 | c1ccc(Nc2nncs2)cc1 [SX-D8] | 0.99 | 30.873 and 31.527 | 1.17 | 15.418 and 15.164 | V0 / Vi (bovine factor Xa; [3]): 1.15; vinit, avrg. (bovine factor Xa; [3]): 14.126; vinit (bovine factor Xa; [3]): 15.1223 and 13.77 and 13.49; V0 / Vi (bovine factor Xa; [4]): 1.14; vinit (bovine factor Xa; [4]): 30.094 and 32.958 and 33.09; Ki (bovine factor Xa; substrate 100 µM): 814 µM; Ki (bovine factor Xa; substrate 200 µM): 652 µM
43 | CC1CCc2sc(C(=O)O)cc2C1 (centres unmarked) [SX-D9] | 1.40 | 23.527 and 20.764 | 1.04 | 17.818 and 16.655 | V0 / Vi (human thrombin; [5]): 1.41; vinit, avrg. (human thrombin; [5]): 18.876; vinit (human thrombin; [5]): 19.443 and 19.03 and 18.15; V0 / Vi (human thrombin; [6]): 1.17; vinit, avrg. (human thrombin; [6]): 28.950; vinit (human thrombin; [6]): 33.096 and 26.331 and 27.42; Ki (human thrombin; [7]): 57 µM; Ki (human thrombin; [8]): 73 µM
44 | c1ccc2oc(C3CCCNC3)nc2c1 (centres unmarked) [SX-D10] | 0.92 | 35.091 and 33.236 | 0.95 | 15 and 15.3 | 
